For seven compounds, ED50 results are on record in ChEMBL document CHEMBL1127749 (J Med Chem, 1994).

The ED50 is the midpoint of the dose-response relation. The low end stands for greater potency, the high end for weaker potency.

Assay [1] has as its target Muscarinic acetylcholine receptor M2 (Mus musculus) (UniProt Q9ERZ4). Nature of the assay: In vivo determination of peripheral M2 receptor mediated tremor, cholinergic side effect.
The target is the same in assay [2]. Nature of the assay: In vivo determination of peripheral M2 receptor mediated hypothermia, cholinergic side effect.
Assay [3] shares this target. Nature of the assay: In vivo determination of peripheral M2 receptor mediated salivation, cholinergic side effect.
The target is the same in assay [4]. Nature of the assay: Compound was tested against peripheral M2 receptor mediated cholinergic side effect hypothermia; Very flat dose-response curve with about 50% of maximum response at 350 umol/kg.

For the compound `CCN1C(=O)CC2(CCN(C)CC2)C1=O`, the values for the ED50 in assay [1], in assay [2] and in assay [3] were 38 µmol/kg, 8.6 µmol/kg and 2.5 µmol/kg, respectively.

As for `CCn1ncc(C2=CCCNC2)n1`, the ED50 in assay [1] came to 60 µmol/kg; in assay [2] it was 19 µmol/kg; in assay [3], 12 µmol/kg.

Regarding `C[N+](C)(C)CCOC(N)=O`, the ED50 in assay [2] turned out to be 90 µmol/kg; in assay [3], 120 µmol/kg.

As to `CN1CCC=C(c2cnn(C)n2)C1`, the ED50 is over 110 µmol/kg in assay [1], 5.3 µmol/kg in assay [2] and 3.6 µmol/kg in assay [3].

As for `CCCCn1ncc(C2=CCCN(C)C2)n1`, the 50% effective dose (ED50) in assay [1] is 72 µmol/kg; in assay [2] it was 60 µmol/kg; in assay [3], over 160 µmol/kg.

As for `CCn1ncc(C2=CCCN(C)C2)n1`, the figures for the ED50 in assay [1], in assay [4] and in assay [3] were 180 µmol/kg, 350 µmol/kg and 400 µmol/kg, respectively.

On to `CCn1nnc(C2=CCCNC2)n1`, for which the ED50 is over 150 µmol/kg in assay [1], 78 µmol/kg in assay [2] and 41 µmol/kg in assay [3].
